Measured values from patent publication US20250144067A1, “PERSONALIZED STARVATION THERAPY FOR CANCER” (Faeth Therapeutics, Inc., priority 2021, published 2025).
Where a name gives a salt, the structure may show the parent alone. Read-outs that look alike come from different tables or passages of the source.

Assays:
[1] = test system: NCI-H292 lung cancer cells; assay: FDA drug screening, complete media vs cholesterol-free media without statin (TABLE 1); type: cell-based, human
[2] = test system: NCI-H292 lung cancer cells; assay: FDA drug screening, complete media vs cholesterol-free media with simvastatin (TABLE 2); type: cell-based, human
[3] = Complete minus Cholesterol-free, >0 enhanced anti-cancer activity, about 0 neutral, <0 antagonist
[4] = NCI-H292 cells, cholesterol-free media without statin, FDA drug library screen
[5] = NCI-H292 cells, complete media, FDA drug library screen
[6] = NCI-H292 cells, FDA library drug in cholesterol-free media with simvastatin 0.04 μM
[7] = NCI-H292 cells, FDA library drug in complete media
[8] = complete media vs cholesterol-free media + simvastatin (0.04 μM), >0 enhanced anti-cancer activity, about 0 neutral, <0 antagonist
[9] = Complete minus Cholesterol-free, greater than 0 enhanced anti-cancer activity, about 0 neutral, below 0 antagonists
[10] = NCI-H292 cells in cholesterol-free media without statin
[11] = NCI-H292 cells in complete media
[12] = NCI-H292 cells, cholesterol-free media with simvastatin 0.04 μM, cell growth value in FDA drug screen
[13] = NCI-H292 cells, complete media, cell growth value in FDA drug screen
[14] = complete media minus cholesterol-free media + simvastatin, >0 enhanced anti-cancer activity, about 0 neutral, <0 antagonist
[15] = Complete minus Cholesterol-free, […]
[16] = NCI-H292 cells, cholesterol-free media without statin
[17] = NCI-H292 cells, drug in cholesterol-free media with simvastatin 0.04 μM
[18] = NCI-H292 cells, drug in complete media
[19] = complete media vs cholesterol-free media + simvastatin (0.04 μM), […]
[20] = NCI-H292 cells, FDA drug library screen, cholesterol-free media with simvastatin 0.04 μM
[21] = NCI-H292 cells, FDA drug library screen, complete media
[22] = complete vs cholesterol-free media, greater than 0 enhanced anti-cancer activity, about 0 neutral, below 0 antagonists
[23] = NCI-H292 cells, cholesterol-free media with simvastatin 0.04 μM, FDA drug library screen (TABLE 2)
[24] = NCI-H292 cells, complete media, FDA drug library screen (TABLE 2)
[25] = complete media minus cholesterol-free media + simvastatin (0.04 μM), >0 enhanced anti-cancer activity, about 0 neutral, <0 antagonist
[26] = Complete minus Cholesterol-free, greater than 0 enhanced anti-cancer activity, about 0 neutral, below 0 antagonist
[27] = NCI-H292 cells, FDA drug library screen, cholesterol-free media without statin
[28] = complete vs cholesterol-free media, >0 enhanced anti-cancer activity, about 0 neutral, <0 antagonist

Abemaciclib (methanesulfonate)
Difference [1, 3]: −0.03 | Cholesterol-free [1, 4]: 0.6853 | Complete [1, 5]: 0.6534 | Cholesterol-free media + simvastatin (0.04 μM) [2, 6]: 0.9262 | Complete Media [2, 7]: 0.6131 | Difference [2, 8]: −0.31

Cc1c(NC(=O)c2cccnc2)c(=O)n(-c2ccccc2)n1C [Nifenazone]
Difference [1, 9]: −0.66 | Cholesterol-free [1, 10]: 1.466 | Complete [1, 11]: 0.8088 | Cholesterol-free media + simvastatin (0.04 μM) [2, 12]: 0.9965 | Complete Media [2, 13]: 1.032 | Difference [2, 14]: 0.04

Eliglustat (hemitartrate)
Difference [1, 15]: −0.24 | Cholesterol-free [1, 16]: 0.8345 | Complete ([1]; NCI-H292 cells, complete media): 0.5954 | Cholesterol-free media + simvastatin (0.04 μM) [2, 17]: 0.9268 | Complete Media [2, 18]: 0.7576 | Difference [2, 19]: −0.17

Osimertinib (dimesylate)
Difference [1, 15]: −0.05 | Cholesterol-free [1, 4]: 0.1916 | Complete [1, 5]: 0.1371 | Cholesterol-free media + simvastatin (0.04 μM) [2, 20]: 0.4427 | Complete Media [2, 21]: 0.3618 | Difference [2, 19]: −0.08

CNCCC=C1c2ccccc2CCc2ccccc21 [Nortriptyline (hydrochloride)]
Cholesterol-free [1, 16]: 1.336 | Complete ([1]; NCI-H292 cells, complete media): 1.01 | Difference [1, 22]: −0.33 | Cholesterol-free media + simvastatin (0.04 μM) [2, 17]: 1.16 | Complete Media [2, 18]: 0.9078 | Difference [2, 8]: −0.25

CCN(CCO)CCCC(C)Nc1ccnc2cc(Cl)ccc12 (centres unmarked) [Hydroxychloroquine sulfate]
Difference [1, 9]: −0.72 | Complete [1, 11]: 0.895 | Cholesterol-free media + simvastatin (0.04 μM) [2, 12]: 0.9769 | Complete Media [2, 13]: 1.024 | Difference [2, 14]: 0.05

CCCN[C@H]1CCc2nc(N)sc2C1 [Pramipexole (dihydrochloride)]
Difference [1, 9]: −0.49 | Cholesterol-free [1, 10]: 1.504 | Complete [1, 11]: 1.014 | Cholesterol-free media + simvastatin (0.04 μM) [2, 23]: 0.885 | Complete Media [2, 24]: 0.866 | Difference [2, 25]: −0.02

O=C(O)C(c1ccccc1)(c1ccccc1)c1ccccc1.OCc1cc([C@@H](O)CNCCCCCCOCCOCc2c(Cl)cccc2Cl)ccc1O [Vilanterol (trifenatate)]
Cholesterol-free [1, 16]: 1.453 | Complete ([1]; NCI-H292 cells, complete media): 1.047 | Difference [1, 22]: −0.41 | Cholesterol-free media + simvastatin (0.04 μM) [2, 23]: 0.9213 | Complete Media [2, 24]: 0.9369 | Difference [2, 25]: 0.02

Nc1nc(=O)c2c([nH]1)NC[C@@H](CNc1ccc(C(=O)N[C@@H](CCC(=O)O)C(=O)O)cc1)N2C=O [Folinic acid]
Difference [1, 26]: −0.12 | Cholesterol-free [1, 27]: 1.105 | Complete [1, 21]: 0.9813 | Cholesterol-free media + simvastatin (0.04 μM) [2, 6]: 1.232 | Complete Media [2, 7]: 0.9515 | Difference [2, 8]: −0.28

CN(C)C(=O)Oc1ccc[n+](C)c1.[Br-] [Pyridostigmine (bromide)]
Cholesterol-free [1]: 0.882 | Complete [1]: 0.9353 | Difference [1]: 0.05 | Cholesterol-free media + simvastatin (0.04 μM) [2]: 1.546 | Complete Media [2]: 1.09 | Difference [2]: −0.46

Deferoxamine (mesylate)
Difference [1, 26]: −0.12 | Cholesterol-free [1, 27]: 0.9976 | Complete [1, 21]: 0.8739 | Cholesterol-free media + simvastatin (0.04 μM) [2, 6]: 1.454 | Difference [2, 8]: −0.43

CC(C)(CO)C(O)C(=O)NCCCO (racemic) [DL-Panthenol]
Difference [1, 9]: −0.82 | Cholesterol-free [1, 10]: 1.816 | Complete [1, 11]: 0.9995 | Cholesterol-free media + simvastatin (0.04 μM) [2, 20]: 1.177 | Complete Media [2, 21]: 1.049 | Difference [2, 8]: −0.13

CCc1cc2c(cc1CC)CC(NC[C@H](O)c1ccc(O)c3[nH]c(=O)ccc13)C2 [Indacaterol]
Cholesterol-free [1, 4]: 0.6776 | Complete [1, 5]: 1.376 | Difference [1, 28]: 0.70 | Cholesterol-free media + simvastatin (0.04 μM) [2, 20]: 0.7696 | Complete Media [2, 21]: 1.1 | Difference [2, 14]: 0.33

Cc1[nH]c(=O)c(C#N)cc1-c1ccc2nccn2c1 [Olprinone (Hydrochloride)]
Difference [1, 3]: −0.27 | Cholesterol-free [1, 16]: 1.142 | Complete ([1]; NCI-H292 cells, complete media): 0.8745 | Cholesterol-free media + simvastatin (0.04 μM) [2, 23]: 1.653 | Complete Media [2, 24]: 1.64 | Difference [2, 25]: −0.01

CC(/C=C/C=C(\C)C(=O)O[C@@H]1O[C@H](CO[C@@H]2O[C@H](CO)[C@@H](O)[C@H](O)[C@H]2O)[C@@H](O)[C@H](O)[C@H]1O)=C\C=C\C=C(C)\C=C\C=C(/C)C(=O)O[C@@H]1O[C@H](CO[C@@H]2O[C@H](CO)[C@@H](O)[C@H](O)[C@H]2O)[C@@H](O)[C@H](O)[C@H]1O [Crocin]
Difference [1, 26]: −0.11 | Cholesterol-free [1, 27]: 1.099 | Complete [1, 21]: 0.9914 | Cholesterol-free media + simvastatin (0.04 μM) [2, 17]: 1.135 | Complete Media [2, 18]: 0.9252 | Difference [2, 8]: −0.21

CC(=O)[C@]1(O)Cc2c(O)c3c(c(O)c2[C@@H](O[C@H]2C[C@H](N)[C@H](O)[C@H](C)O2)C1)C(=O)c1ccccc1C3=O [Idarubicin (hydrochloride)]
Difference [1, 3]: −0.01 | Cholesterol-free [1, 4]: −0.02296 | Complete [1, 5]: −0.02941 | Cholesterol-free media + simvastatin (0.04 μM) [2, 23]: 0.008408 | Complete Media [2, 24]: 0.002721 | Difference [2, 25]: −0.01

OC[C@H]1O[C@@H](O[C@H]2[C@H](O)[C@@H](O)[C@@H](O)O[C@@H]2CO)[C@H](O)[C@@H](O)[C@H]1O [Lactose]
Difference [1, 9]: −0.48 | Complete [1, 11]: 0.6552 | Complete Media [2, 7]: 0.9497 | Difference [2, 8]: −0.28

CC(=O)OCC[N+](C)(C)C.[I-] [Acetylcholine (iodide)]
Cholesterol-free [1, 16]: 1.351 | Complete ([1]; NCI-H292 cells, complete media): 1 | Difference [1, 22]: −0.35 | Cholesterol-free media + simvastatin (0.04 μM) [2, 17]: 1.762 | Complete Media [2, 18]: 1.59 | Difference [2, 8]: −0.17

Edoxaban (tosylate monohydrate)
Cholesterol-free [1, 4]: 0.765 | Complete [1, 5]: 0.9385 | Difference ([1]; complete vs cholesterol-free media, […]): 0.17 | Cholesterol-free media + simvastatin (0.04 μM) [2, 17]: 1.271 | Complete Media [2, 18]: 1.053 | Difference [2, 19]: −0.22

CC(=O)NC(CCC(N)=O)C(=O)O (centres unmarked) [Aceglutamide]
Cholesterol-free [1, 16]: 1.178 | Complete ([1]; NCI-H292 cells, complete media): 0.7674 | Difference [1, 22]: −0.41 | Cholesterol-free media + simvastatin (0.04 μM) [2, 20]: 0.762 | Complete Media [2, 21]: 1.026 | Difference [2, 14]: 0.26

Cc1ccc(C(=O)c2ccc(CC(=O)O)n2C)cc1 [Tolmetin (sodium dihydrate)]
Cholesterol-free [1, 4]: 0.7023 | Complete [1, 5]: 1.262 | Difference [1, 28]: 0.56 | Cholesterol-free media + simvastatin (0.04 μM) [2, 6]: 1.295 | Complete Media [2, 7]: 0.94 | Difference [2, 8]: −0.35

CC(=O)Oc1cccc2c1C(=O)c1c(OC(C)=O)cc(C(=O)O)cc1C2=O [Diacerein]
Difference [1, 26]: −0.13 | Cholesterol-free [1, 27]: 1.078 | Complete [1, 21]: 0.9444 | Cholesterol-free media + simvastatin (0.04 μM) [2, 17]: 1.08 | Complete Media [2, 18]: 0.9105 | Difference [2, 8]: −0.17

O.O.O.O.O=P([O-])(O)C(Cl)(Cl)P(=O)([O-])O.[Na+].[Na+] [Clodronate (disodium tetrahydrate)]
Difference [1, 3]: −0.05 | Cholesterol-free [1, 4]: 1.08 | Complete [1, 5]: 1.034 | Cholesterol-free media + simvastatin (0.04 μM) [2, 12]: 0.8439 | Complete Media [2, 13]: 0.9326 | Difference [2, 14]: 0.09

O=C1OCCN1/N=C/c1ccc([N+](=O)[O-])o1 [Furazolidone]
Cholesterol-free [1, 4]: 0.797 | Difference [1, 28]: 0.35 | Cholesterol-free media + simvastatin (0.04 μM) [2, 23]: 0.938 | Complete Media [2, 24]: 0.9029 | Difference [2, 25]: −0.04

O=C(O)c1ccccc1 [Benzoic acid]
Cholesterol-free [1]: 1.119 | Complete [1]: 1.063 | Difference [1]: −0.06 | Cholesterol-free media + simvastatin (0.04 μM) [2]: 1.277 | Difference [2]: −0.11

N[C@@H]1CONC1=O [D-Cycloserine]
Cholesterol-free [1, 16]: 1.516 | Difference [1, 22]: −0.37 | Cholesterol-free media + simvastatin (0.04 μM) [2, 17]: 1.193 | Complete Media [2, 18]: 1.005 | Difference [2, 8]: −0.19

CC(=O)OC[C@H]1O[C@@H]([S-])[C@H](OC(C)=O)[C@@H](OC(C)=O)[C@@H]1OC(C)=O.CCP(CC)CC.[Au+] [Auranofin]
Difference [1, 15]: 0.01 | Cholesterol-free [1, 4]: −0.008527 | Complete [1, 5]: 0.0049 | Cholesterol-free media + simvastatin (0.04 μM) [2, 23]: 0.01251 | Complete Media [2, 24]: 0.0008313 | Difference ([2]; complete media minus cholesterol-free media + simvastatin (0.04 μM), […]): −0.01

O=C1C(CC[S+]([O-])c2ccccc2)C(=O)N(c2ccccc2)N1c1ccccc1 (centres unmarked) [Sulfinpyrazone]
Cholesterol-free [1, 16]: 1.3 | Complete ([1]; NCI-H292 cells, complete media): 0.9417 | Difference [1, 22]: −0.36 | Cholesterol-free media + simvastatin (0.04 μM) [2, 17]: 1.076 | Complete Media [2, 18]: 0.9093 | Difference [2, 8]: −0.17

COc1ccc2cc([C@H](C)C(=O)O)ccc2c1 [Naproxen (sodium)]
Cholesterol-free [1, 16]: 1.162 | Complete ([1]; NCI-H292 cells, complete media): 0.8469 | Difference [1, 22]: −0.32 | Cholesterol-free media + simvastatin (0.04 μM) [2, 20]: 1.198 | Complete Media [2, 21]: 1.058 | Difference [2, 8]: −0.14
